For three compounds, Kd results are on record in BindingDB's records for doi:10.1021/jm801643b (Vanderbilt University, 2009).

Sterol 14-alpha demethylase, sequence (Q7Z1V1 whole entry): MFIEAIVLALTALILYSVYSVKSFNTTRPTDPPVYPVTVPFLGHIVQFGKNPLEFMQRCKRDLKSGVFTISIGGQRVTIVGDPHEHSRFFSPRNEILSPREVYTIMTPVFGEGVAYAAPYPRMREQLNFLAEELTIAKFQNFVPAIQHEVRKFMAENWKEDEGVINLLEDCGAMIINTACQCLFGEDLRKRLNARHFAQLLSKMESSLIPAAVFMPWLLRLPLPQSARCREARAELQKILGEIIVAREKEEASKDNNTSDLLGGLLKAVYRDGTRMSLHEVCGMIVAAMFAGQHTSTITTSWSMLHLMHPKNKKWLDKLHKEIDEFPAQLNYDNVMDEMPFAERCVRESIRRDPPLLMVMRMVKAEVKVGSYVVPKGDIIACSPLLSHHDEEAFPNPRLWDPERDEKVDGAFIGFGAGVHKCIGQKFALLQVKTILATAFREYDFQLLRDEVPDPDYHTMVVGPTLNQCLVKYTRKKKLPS

This assay addresses Sterol 14-alpha demethylase (Trypanosoma cruzi (strain CL Brener), UniProt Q7Z1V1). As to the kind of experiment: Spectral Titration of TCCYP51. The settings on record: pH 7.4; 24 °C. The procedure: As a cysteine-coordinated hemoprotein, sterol 14-alpha-demethylase responds spectrally to any perturbations in the area surrounding the heme iron. These spectral responses can be used to estimate the apparent dissociation constants (Kd) of the enzyme/ligand complexes. […] The tested compounds were added in 1 ul aliquots to the test cuvette until the maximum in spectral response was reached. Equal volumes of DMSO were added to the reference cuvette. The apparent Kd values were determined from the equilibrium titration curves by plotting absorbance changes against the concentration of free ligand and fitting the data to a rectangular hyperbola using SigmaPlot Statistics.
Regarding `COc1ccc2c(c1)c(CC(=O)NCc1ccc(C(F)(F)F)nc1)c(C)n2C(=O)c1ccc(Cl)cc1` [Indomethacin-amide derivative, 19], the Kd turned out to be 560 nM.

Compound `COc1ccc2c(c1)c(CC(=O)NCc1ccc(Cl)nc1)c(C)n2C(=O)c1ccc(Cl)cc1` [Indomethacin-amide derivative, 18] registered a Kd of 260 nM.

With `COc1ccc2c(c1)c(CC(=O)Nc1cccnc1C)c(C)n2C(=O)c1ccc(Cl)cc1` [Indomethacin-amide derivative, 13], the Kd came to 7600 nM.
